Key:
[1] = test system: Magnaporthe grisea; type: cell-based; conditions: 100 ppm; for Average antifungal rate (%) / Antifungal rate of Magnaporthe grisea (%), Replicate 1 / Antifungal rate of Magnaporthe grisea (%), Replicate 2 / Antifungal rate of Magnaporthe grisea (%), Replicate 3: 96-well plate; for Average antifungal rate (%): average of 3 replicates
[2] = test system: eggs of Tetranychus urticae; test: Effect on hatching of eggs of Tetranychus urticae, leaf disc method; type: in vivo; conditions: 5 ppm; for Hatching rate (%): 5 days after insecticide delivery
Description: (§1) • (1) Preparation of leaf discs containing eggs: 20 female adult mites of Tetranychus cinnabarinus were transferred onto leaf discs of Vicia faba with a diameter of 2.0 cm (with wetted filter paper at the bottom), then covered it with a lidded culture dish and cultivated under moisturizing conditions, the adult mites were removed within 36 hours and microscopic examination and counting were performed on leaf discs containing eggs. • (2) Investigation of egg population base: Before pesticide soaking, a microscopic examination was conducted on the egg basic number of each leaf disc, with 2 replicates set for each treatment. • (3) Pesticide soaking treatment: The leaf butterflies loaded with mite eggs were soaked in clear water and sulfite compounds for 10 seconds, respectively, then taken out and cultivated under moisturizing conditions. Each treatment should be repeated for no less than 3 times. • (4) Cultivation and observation: The […] were cultivated under normal conditions. Five days after insecticide delivery, the hatching status of mite eggs was investigated. • Note: The temperature and humidity conditions of the constant temperature and humidity incubator after the treatment should be controlled so as to avoid excessive temperature differences, which may cause generation and dripping of condensate water in the culture dish, resulting in abnormal death of eggs due to soaking in water; it is also necessary to ensure sufficient strong ambient light, without directing irradiating the leaves. • (5) Survey of Results: The experimental materials of each treatment group were regularly hydrated and moisturized, and the hatching of eggs was observed. On the 7th day after insecticide delivery, the number of hatched eggs for each treatment was recorded, and the survey of results was recorded in the original notebook. According to the experimental requirements and characteristics of agents, the survey time can be shortened or extended.
(§2) • 1) Surveying and recording the number of hatched eggs for each treatment. • 2) Photographing and recording whether there was any pesticide damage to the leaf discs of Vicia faba. • 3) Recording the developmental status of experimental mite eggs, behavior status of nymph mites, including abnormal phenomena such as delayed or stopped development of mite eggs, difficulty in breaking hull for nymph mites, or painful struggles after hatching, etc. • (6) Calculation method: Based on the survey data, the prevention and control effect of each treatment was calculated according to the following formula, and the calculation results were kept to two decimal places.
This test adopted the method in Test Example 1 of technical section, mainly used leaf disc method to explore the inhibitory effect on hatching of eggs of Tetranychus urticae by compounds 1-(S,S), 1-(S,R), 1-(R,R), 1-(R,S), 1′-(S,S), 1′-(S,R), 1′-(R,R), 1′-(R,S), compound 1, compound 1′, S-10, R-10, S-10′, R-10′, compound 10, compound 10′, compound 19-(S,S), 19-(S,R), 19-(R,R), 19-(R,S), 19′-(S,S), 19′-(S,R), 19′-(R,R), 19′-(R,S), compound 19, and compound 19′. The concentration of all compounds was 5 ppm.

[3] = test system: eggs of Panonychus citri; test: Effect on hatching of eggs of Panonychus citri, leaf disc method; type: in vivo; conditions: 1 ppm; for Hatching rate (%), Replicate 1 / Hatching rate (%), Replicate 2 / Hatching rate (%), Replicate 3 / Number of hatched larvae 5 days after insecticide delivery, Replicate 1 / Number of hatched larvae 5 days after insecticide delivery, Replicate 2 / Number of hatched larvae 5 days after insecticide delivery, Replicate 3: Panonychus citri eggs; for Hatching rate (%), Replicate 1 / Hatching rate (%), Replicate 2 / Hatching rate (%), Replicate 3: 5 days after delivery; for Number of hatched larvae 5 days after insecticide delivery, Replicate 1 / Number of hatched larvae 5 days after insecticide delivery, Replicate 2 / Number of hatched larvae 5 days after insecticide delivery, Replicate 3: leaf disc
Description: as §1, §2
This test adopted the method in Test Example 1 of technical section, mainly used leaf disc method to explore the effect on hatching of eggs of Panonychus citri by compounds 1-(S,S), 1-(S,R), 1-(R,R), 1-(R,S), 1′-(S,S), 1′-(S,R), 1′-(R,R), 1′-(R,S), compound 1, compound 1′, S-10, R-10, S-10′, R-10′, compound 10, compound 10′, compound 19-(S,S), 19-(S,R), 19-(R,R), 19-(R,S), 19′-(S,S), 19′-(S,R), 19′-(R,R), 19′-(R,S), compound 19, and compound 19′. The concentration of all compounds was 1 ppm.

[4] = test system: eggs of Thrips; test: Effect on hatching of eggs of Thrips, leaf disc method; type: in vivo; conditions: 100 ppm; for Hatching rate (%): 5 days after insecticide delivery
Description: as §1, §2
This test adopted the method in Test Example 1 of technical section, mainly used leaf disc method to explore the inhibitory effect on hatching of eggs of Thrips by 1-(S,S), 1-(S,R), 1-(R,R), 1-(R,S), 1′-(S,S), 1′-(S,R), 1′-(R,R), 1′-(R,S), compound 1, compound 1′, S-10, R-10, S-10′, R-10′, compound 10, compound 10′, compound 19-(S,S), 19-(S,R), 19-(R,R), 19-(R,S), 19′-(S,S), 19′-(S,R), 19′-(R,R), 19′-(R,S), compound 19, and compound 19′. The concentration of all compounds was 100 ppm.

[5] = test system: eggs of Spodoptera litura; test: Effect on hatching of eggs of Spodoptera litura, egg piece soaking; type: in vivo; conditions: 500 ppm; for Hatching rate (%), Replicate 1 / Hatching rate (%), Replicate 2 / Hatching rate (%), Replicate 3 / Number of unhatched larvae 4 days after insecticide delivery, Replicate 1 / Number of unhatched larvae 4 days after insecticide delivery, Replicate 2 / Number of unhatched larvae 4 days after insecticide delivery, Replicate 3: Spodoptera litura eggs; for Hatching rate (%), Replicate 1 / Hatching rate (%), Replicate 2 / Hatching rate (%), Replicate 3: 4 days after delivery; for Number of unhatched larvae 4 days after insecticide delivery, Replicate 1 / Number of unhatched larvae 4 days after insecticide delivery, Replicate 2 / Number of unhatched larvae 4 days after insecticide delivery, Replicate 3: soaked 10 minutes
Description: • (1) Preparation of paper containing eggs: the egg mass was cut into small pieces, each containing about 60 eggs, soaked in a preformulated test agent for 10 minutes together with paper for egg raising (concentration of each compound of 500 ppm). After taken out, absorbent paper was used to absorb the excess solution adhered to the paper for egg raising and egg pieces. (2) Cultivation: Each egg piece was separately placed in a glass test tube (5.0 cm in height, 2.5 cm in diameter, the same below), which was sealed with plastic paper punctured with fine holes using insect needles and cultivated in an artificial climate chamber at a temperature of (24±1° C.), a relative humidity of (80±10) %, and a photoperiod of L:D=12:12. When the eggs developed until they were about to hatch, castor leaves with a diameter of about 3 cm were added for feeding the hatching larvae; • (3) Observation: the number of hatched and unhatched eggs per egg piece was checked and recorded, and the hatching rate of eggs was calculated according to the formula. Each treatment was repeated for 3 times. • (4) Survey of results: The experimental materials of each treatment group were regularly hydrated and moisturized, and the hatching of eggs was observed. On the 4th day after insecticide delivery, the number of hatched eggs for each treatment was recorded, and the survey of results was recorded in the original notebook. According to the experimental requirements and characteristics of agents, the survey time can be shortened or extended. • 1) Surveying and recording the number of hatched eggs for each treatment. • 2) Recording the developmental status of experimental eggs of Spodoptera litura, behavior status of nymphs, including abnormal phenomena such as delayed or stopped development of eggs of Spodoptera litura, etc. • (5) Calculation method: Based on the survey data, the prevention and control effect of each treatment was calculated according to the following formula, and the calculation results were kept to two decimal places. [formula] [formula]

[6] = Replicate 1, listed as 1-(S, R)
[7] = Replicate 2, listed as 1-(S, R)
[8] = Replicate 3, listed as 1-(S, R)
[9] = Replicate 1, listed as 1-(S, S)
[10] = Replicate 2, listed as 1-(S, S)
[11] = Replicate 3, listed as 1-(S, S)

SMILES: C[C@@H](COS(=O)OCCF)Oc1ccc(Cl)cc1Cl (stereo partly drawn) [1-(S,R)]
- inhibitory rate against Magnaporthe grisea (in words) [1]: strong inhibitory rate
- Average antifungal rate (%) [1]: 82.92%
- Antifungal rate of Magnaporthe grisea (%), Replicate 1 [1]: 87.32%
- Antifungal rate of Magnaporthe grisea (%), Replicate 2 [1]: 82.96%
- Antifungal rate of Magnaporthe grisea (%), Replicate 3 [1]: 78.48%
- Hatching rate (%) [2, 6]: 10.87%
- Hatching rate (%) [2, 7]: 12.16%
- Number of hatched larvae 5 days after insecticide delivery [2, 6]: 10
- Number of hatched larvae 5 days after insecticide delivery [2, 7]: 9
- Hatching rate (%), Replicate 1 ([3]; listed as 1-(S, R)): 5.83%
- Hatching rate (%), Replicate 2 ([3]; listed as 1-(S, R)): 5.75%
- Hatching rate (%), Replicate 3 ([3]; listed as 1-(S, R)): 6.06%
- Number of hatched larvae 5 days after insecticide delivery, Replicate 1 ([3]; listed as 1-(S, R)): 6
- Number of hatched larvae 5 days after insecticide delivery, Replicate 2 ([3]; listed as 1-(S, R)): 5
- Number of hatched larvae 5 days after insecticide delivery, Replicate 3 ([3]; listed as 1-(S, R)): 8
- Hatching rate (%) [4, 6]: 12.06%
- Hatching rate (%) [4, 7]: 8.33%
- Hatching rate (%) [4, 8]: 10.28%
- Number of hatched larvae 5 days after insecticide delivery [4, 6]: 17
- Number of hatched larvae 5 days after insecticide delivery [4, 7]: 8
- Number of hatched larvae 5 days after insecticide delivery [4, 8]: 11
- Hatching rate (%), Replicate 1 ([5]; listed as 1-(S, R)): 62.30%
- Hatching rate (%), Replicate 2 ([5]; listed as 1-(S, R)): 63.08%
- Hatching rate (%), Replicate 3 ([5]; listed as 1-(S, R)): 60.34%
- Number of unhatched larvae 4 days after insecticide delivery, Replicate 1 ([5]; listed as 1-(S, R)): 23
- Number of unhatched larvae 4 days after insecticide delivery, Replicate 2 ([5]; listed as 1-(S, R)): 24
- Number of unhatched larvae 4 days after insecticide delivery, Replicate 3 ([5]; listed as 1-(S, R)): 23

SMILES: C[C@@H](COS(=O)OCCF)Oc1ccc(Cl)cc1Cl (stereo partly drawn) [1-(S,S)]
- inhibitory rate against Magnaporthe grisea (in words) [1]: strong inhibitory rate
- Average antifungal rate (%) [1]: 97.35%
- Antifungal rate of Magnaporthe grisea (%), Replicate 1 [1]: 99.38%
- Antifungal rate of Magnaporthe grisea (%), Replicate 2 [1]: 95.02%
- Antifungal rate of Magnaporthe grisea (%), Replicate 3 [1]: 97.64%
- inhibitory activity on the hatching of eggs of Tetranychus urticae (in words) [2]: strong inhibitory activities
- Hatching rate (%) [2, 9]: 0.00%
- Hatching rate (%) [2, 10]: 0.00%
- Number of hatched larvae 5 days after insecticide delivery [2, 9]: 0
- Number of hatched larvae 5 days after insecticide delivery [2, 10]: 0
- inhibitory effect on the hatching of eggs of Panonychus citri (in words) [3]: good inhibitory effects
- Hatching rate (%), Replicate 1 ([3]; listed as 1-(S, S)): 0.00%
- Hatching rate (%), Replicate 2 ([3]; listed as 1-(S, S)): 0.00%
- Hatching rate (%), Replicate 3 ([3]; listed as 1-(S, S)): 0.00%
- Number of hatched larvae 5 days after insecticide delivery, Replicate 1 ([3]; listed as 1-(S, S)): 0
- Number of hatched larvae 5 days after insecticide delivery, Replicate 2 ([3]; listed as 1-(S, S)): 0
- Number of hatched larvae 5 days after insecticide delivery, Replicate 3 ([3]; listed as 1-(S, S)): 0
- inhibitory activity on the hatching of eggs of Thrips (in words) [4]: strong inhibitory activities
- Hatching rate (%) [4, 9]: 0.00%
- Hatching rate (%) [4, 10]: 0.00%
- Hatching rate (%) [4, 11]: 0.00%
- Number of hatched larvae 5 days after insecticide delivery [4, 9]: 0
- Number of hatched larvae 5 days after insecticide delivery [4, 10]: 0
- Number of hatched larvae 5 days after insecticide delivery [4, 11]: 0
- inhibitory activity on the hatching of eggs of Spodoptera litura (in words) [5]: good inhibitory activities
- Hatching rate (%), Replicate 1 ([5]; listed as 1-(S, S)): 23.73%
- Hatching rate (%), Replicate 2 ([5]; listed as 1-(S, S)): 26.15%
- Hatching rate (%), Replicate 3 ([5]; listed as 1-(S, S)): 20.69%
- Number of unhatched larvae 4 days after insecticide delivery, Replicate 1 ([5]; listed as 1-(S, S)): 45
- Number of unhatched larvae 4 days after insecticide delivery, Replicate 2 ([5]; listed as 1-(S, S)): 48
- Number of unhatched larvae 4 days after insecticide delivery, Replicate 3 ([5]; listed as 1-(S, S)): 46

From patent US20260184675A1, “CHIRAL ISOMERIC SULFITE COMPOUND AND APPLICATION THEREOF” (Chengdu Hanova BioSciences Co., Ltd, priority 2024, published 2026)
